Values belong to the compound of their own block, whether it stands above or below them.
Assays:
Assay type in all cases: cell-based
E. coli S 30 = assay: MIC on Muller Hinton Agar (CLSI)
Procedure: (§1) The antibacterial activity of combinations according to the invention was investigated against various bacterial strains. In a typical study, minimum inhibitory concentrations (MIC) were determined using Muller Hinton Agar (MHA) (BD, USA) according to Clinical and Laboratory Standards Institute (CLSI) recommendations, (Clinical and Laboratory Standards Institute (CLSI), Performance Standards for Antimicrobial Susceptibility Testing, 20th Informational Supplement, M 100-S20, Volume 30, No. 1, 2010). In short, the inocula were adjusted to deliver about 10^4 colony forming units (CFU) per spot with a multipoint inoculator (Applied Quality Services, UK). The plates were pored with doubling concentration range of the test combinations according to invention containing MHA. The plates were inoculated and were incubated at 35° C. for 18 hours.

K. pneumoniae B 88 = assay: MIC on Muller Hinton Agar (CLSI)
Procedure: as §1

K. pneumoniae NCTC 13439 = assay: MIC on Muller Hinton Agar (CLSI); conditions: with avibactam at 4 mcg/ml
Procedure: as §1

E. coli S 33 = assay: MIC on Muller Hinton Agar (CLSI)
Procedure: as §1

K. pneumoniae S 48 = assay: MIC on Muller Hinton Agar (CLSI)
Procedure: as §1

E. coli M 44 = assay: MIC on Muller Hinton Agar (CLSI)
Procedure: as §1

E. coli S 330 = assay: MIC on Muller Hinton Agar (CLSI); conditions: with avibactam at 4 mcg/ml
Procedure: as §1

K. pneumoniae S 50 = assay: MIC on Muller Hinton Agar (CLSI)
Procedure: as §1

P. aeruginosa Q-111 = assay: MIC on Muller Hinton Agar (CLSI)
Procedure: as §1

E. coli S 35 = assay: MIC on Muller Hinton Agar (CLSI)
Procedure: as §1

P. aeruginosa S 504 = assay: MIC on Muller Hinton Agar (CLSI)
Procedure: as §1

E. coli S 16 = assay: MIC on Muller Hinton Agar (CLSI)
Procedure: as §1

K. pneumoniae M 3 = assay: MIC on Muller Hinton Agar (CLSI)
Procedure: as §1

P. aeruginosa S 508 = assay: MIC on Muller Hinton Agar (CLSI)
Procedure: as §1

P. aeruginosa S 513 = assay: MIC on Muller Hinton Agar (CLSI)
Procedure: as §1

[1] = tested on: P. aeruginosa H 113720186; assay: MIC on Muller Hinton Agar (CLSI)
Procedure: as §1

K. pneumoniae B 77 = assay: MIC on Muller Hinton Agar (CLSI)
Procedure: as §1

[2] = tested on: highly resistant strains of E. coli, K. pneumonia and P. aeruginosa; assay: MIC, summary over the strain panel
Procedure: as §1

[3] = tested on: clinical isolate of K. pneumoniae S 48 producing metallo beta-lactamases [SHV, TEM, NDM-1]; assay: Time kill study; conditions: each agent at 8 mcg/ml, initial count 6.84 log CFU/ml
Procedure: Typically, freshly grown cultures were diluted to the required cell density (initial starting inoculum) in Cation adjusted Muller Hinton broth medium BD, USA). The antibacterial agents at the required concentrations were added into the culture-containing medium either alone or in combination. The samples were incubated under shaking condition (120 rpm) at 37° C. Enumeration of viable bacterial count was undertaken, every 2 hour, by diluting in normal saline and plating on to the Tryptic Soya Agar plates (BD, USA). The plates were incubated for 24 hours to arrive at the viable bacterial count. […] The decrease of 1 Log CFU/ml, after administration of combination of present invention, in comparison to initial bacterial count corresponds to 90% killing of bacteria. Similarly, 2 Log CFU/ml reductions corresponds to 99% killing of bacteria and 3 Log CFU/ml reductions is equal to 99.9% killing of bacteria.

[4] = agent alone, enzymes SHV, TEM, NDM-1
[5] = agent alone, enzymes TEM, NDM-1

- MIC (mcg/ml) of ceftazidine in presence of avibactam (4 mcg/ml) (E. coli S 30; with avibactam at 4 mcg/ml): >16 µg/mL
- MIC (mcg/ml) of ceftazidine in presence of avibactam (4 mcg/ml) (K. pneumoniae B 88; with avibactam at 4 mcg/ml): >16 µg/mL
- MIC (mcg/ml) of ceftazidine in presence of avibactam (4 mcg/ml) (K. pneumoniae NCTC 13439): >16 µg/mL
- MIC (mcg/ml) of ceftazidine in presence of avibactam (4 mcg/ml) (E. coli S 33; with avibactam at 4 mcg/ml): >16 µg/mL
- MIC (mcg/ml) of ceftazidine in presence of avibactam (4 mcg/ml) (K. pneumoniae S 48; with avibactam at 4 mcg/ml): >16 µg/mL
- MIC (mcg/ml) of ceftazidine in presence of avibactam (4 mcg/ml) (E. coli M 44; with avibactam at 4 mcg/ml): >16 µg/mL
- MIC (mcg/ml) of ceftazidine in presence of avibactam (4 mcg/ml) (E. coli S 330): >16 µg/mL
- MIC (mcg/ml) of ceftazidine in presence of avibactam (4 mcg/ml) (K. pneumoniae S 50; with avibactam at 4 mcg/ml): >16 µg/mL
- MIC (mcg/ml) of ceftazidine in presence of avibactam (4 mcg/ml) (P. aeruginosa Q-111; with avibactam at 4 mcg/ml): 32 µg/mL
- MIC (mcg/ml) of ceftazidine in presence of avibactam (4 mcg/ml) (E. coli S 35; with avibactam at 4 mcg/ml): >16 µg/mL
- MIC (mcg/ml) of ceftazidine in presence of avibactam (4 mcg/ml) (P. aeruginosa S 504; with avibactam at 4 mcg/ml): >16 µg/mL
- MIC (mcg/ml) of ceftazidine in presence of avibactam (4 mcg/ml) (E. coli S 16; with avibactam at 4 mcg/ml): >16 µg/mL
- MIC (mcg/ml) of ceftazidine in presence of avibactam (4 mcg/ml) (K. pneumoniae M 3; with avibactam at 4 mcg/ml): >16 µg/mL
- MIC (mcg/ml) of ceftazidine in presence of avibactam (4 mcg/ml) (P. aeruginosa S 508; with avibactam at 4 mcg/ml): >16 µg/mL
- MIC (mcg/ml) of ceftazidine in presence of avibactam (4 mcg/ml) (P. aeruginosa S 513; with avibactam at 4 mcg/ml): >16 µg/mL
- MIC (mcg/ml) of ceftazidine in presence of avibactam (4 mcg/ml) ([1]; with avibactam at 4 mcg/ml): >32 µg/mL
- MIC (mcg/ml) of ceftazidine in presence of avibactam (4 mcg/ml) (K. pneumoniae B 77; with avibactam at 4 mcg/ml): >16 µg/mL
- MIC values of ceftazidime in presence of avibactam ([2]; with avibactam at 4 mcg/ml, in most of the cases): more than 16 mcg/ml
Compound: CC(C)(O/N=C(\C(=O)N[C@@H]1C(=O)N2C(C(=O)[O-])=C(C[n+]3ccccc3)CS[C@H]12)c1csc(N)n1)C(=O)O [ceftazidine, ceftazidime]

Compound: C[C@@H](O)[C@H]1C(=O)N2C(C(=O)O)=C(SCCN=CN)C[C@H]12 [Imipenem, imipenem]
- Bacterial count ([3]; 2 hours): 7.38 Log CFU/ml
- Bacterial count ([3]; 4 hours): 8.32 Log CFU/ml
- Bacterial count ([3]; 6 hours): 8.81 Log CFU/ml

Compound: colistin
- MIC (E. coli S 30; agent alone, enzymes CMY type, TEM, NDM-1): 0.5 µg/mL
- MIC (K. pneumoniae B 88; [4]): 1 µg/mL
- MIC (E. coli S 33; [5]): 1 µg/mL
- MIC (K. pneumoniae S 48; [4]): 1 µg/mL
- MIC (E. coli M 44; [5]): 1 µg/mL
- MIC (K. pneumoniae S 50; [4]): 1 µg/mL
- MIC (P. aeruginosa Q-111; agent alone, enzymes OXA-4, OXA-11): 2 µg/mL
- MIC (E. coli S 35; [5]): 1 µg/mL
- MIC (P. aeruginosa S 504; agent alone, enzymes VIM-6): 2 µg/mL
- MIC (E. coli S 16; agent alone, enzymes CMY type, TEM, DHA): 1 µg/mL
- MIC (K. pneumoniae M 3; agent alone, enzymes SHV, CTXM, TEM, NDM-1): 1 µg/mL
- MIC (P. aeruginosa S 508; agent alone, enzymes VIM-11): 2 µg/mL
- MIC (P. aeruginosa S 513; agent alone, enzymes VIM-6): 2 µg/mL
- MIC ([1]; agent alone, enzymes IMP): 2 µg/mL
- MIC (K. pneumoniae B 77; [4]): 1 µg/mL
- MICs (range over the strains) ([2]; agent alone, resistant strains of E. coli, K. pneumonia and P. aeruginosa): 0.5 to 2 µg/mL

From US9827235B2, “Pharmaceutical compositions comprising antibacterial agents” (WOCKHARDT LIMITED, priority 2013, dated 2017)
